# Experimental data from patent US20260199424A1, “METHODS AND COMPOSITIONS FOR IMPROVING VISUAL FUNCTION IN OCULAR DISEASES AND DISORDERS” (priority 2022, published 2026).
# Values joined by “and” are separate entries in the source; they are usually repeats but may differ in a detail not shown here. Equal entries are not always repeated. “Also recorded” adds a separate entry of the source. Where two headings read alike, the source gives them in different places. No end group written: not given here.
# Assays:
# [1] = minipig, in vivo
# Procedure: Seven animals received a repeat IVT dose at 2 mg/mL (0.1 mg/eye) on Day 90. […] Vitreous humor, retina, and choroid were collected on days 1, 7, 14, 28, and 88.
# IL18 = assay: Retinal detachment study, cytokine change from administration to surgery: IL18; format: in vivo, human; settings: for Percent Change (%) from time of administering ONL1204 to surgery IL18: individual patients
# Procedure: (§1) During the study, ocular fluid samples were also collected at the time of study drug injection and at the time of vitrectomy. These samples were used for pharmacokinetic and pharmacodynamic analyses.
# (§2) Patients were enrolled in ascending dose groups. […] Safety visits were conducted one day post-injection and as deemed necessary by the examining Investigator (at least 1 visit every 3 days) until Visit 3. At Visit 3 (3+ days post-injection, in accordance with standard of care) patients underwent surgical repair of their retinal detachment with vitrectomy (with or without scleral buckling) and gas or oil tamponade. At the time of surgery, an undiluted vitreous sample was collected for pharmacokinetic and pharmacodynamics analyses, and an aqueous sample was collected for pharmacodynamic analysis. Additional safety visits were targeted for and generally conducted one day post-surgery, 7 days (±3 days) post-surgery, 14 (±4 days) days post-surgery, and Weeks 6, 9, 12 (±7 days each), and Week 24 (±14 days; study exit).
# [2] = test system: patients with progressing open angle glaucoma; assay: Multi-dose study in progressing open-angle glaucoma, Humphrey Visual Field analysis; format: in vivo, human
# Procedure: Visual function metrics were measured at over two screening time points, a baseline, and at about days 90, 177, 180, and 270. Measures for visual function included visual field analysis pre- and post-treatment with ONL1204.
# Patients were part of the study for approximately 39 weeks (270 days). Randomization was be stratified by HVF mean deviation (−5.00 dB to >−10.00 dB and ≤−10.00 dB to −15.00 dB).
# FIGS. 3-5 show study and fellow eye data for the changes in mean visual field analysis of clusters in sham, 50 ug, and 100 ug patients. The data represents mean data for each cluster (10 clusters per patient). […] Each cluster is denoted by a rate of change in sensitivity, in dB/yr. The Baseline sensitivity of each cluster is denoted in dB. Positive values indicate an improvement in visual field and/or improving rate of visual field change. FIGS. 6-8 show study and fellow eye data for the changes in mean visual field analysis (unclustered, point specific, pointwise) in sham, 50 ug, and 100 ug patients.
# [3] = rabbit, in vivo
# Procedure: Body weights were measured and recorded prior to first dose, approximately weekly (for surviving animals through Week 12), and prior to euthanasia. […] Ophthalmic examinations were performed using the Hackett-McDonald Scoring System on Days 0, 7, 14, 28, 90, 97, 151, and 168. Pharmacokinetic analyses were performed on the vitreous humor concentration data.
# Seven animals received a repeat IVT dose at 2 mg/mL (0.1 mg/eye) on Day 90.
# Vitreous humor, retina, and choroid were collected on days 1, 7, 14, 28, 42, 61, 90, 97, 151, and 168. Eyes were enucleated, snap frozen using liquid nitrogen, and kept on dry ice or frozen at −80° C. until dissected for collection of aqueous humor, vitreous humor, retina, choroid, iris-ciliary body (ICB), and lens.
# To homogenize ocular tissue samples, weighed amounts of control bovine vitreous humor, retina, and choroid were homogenized in USA scientific impact resistant microtubes containing 2.8 mm ceramic beads. Unknown rabbit vitreous humor, retina, and choroid samples were homogenized in USA scientific impact resistant microtubes containing 2.8 mm ceramic beads. […]
# ICAM1 = assay: Retinal detachment study, cytokine change from administration to surgery: ICAM1; format: in vivo, human; settings: for Percent Change (%) from time of administering ONL1204 to surgery ICAM1: individual patients
# Procedure: as §1, §2
# MCP1 = assay: Retinal detachment study, cytokine change from administration to surgery: MCP1; format: in vivo, human; settings: for Percent Change (%) from time of administering ONL1204 to surgery MCP1: individual patients
# Procedure: as §1, §2
# [4] = test system: patients having macular degeneration characterized by geographic atrophy (GA); assay: Study in geographic atrophy (GA) patients, BCVA; format: in vivo, human; settings: single IVT injection, doses 25 ug and 50 ug as printed
# Procedure: Baseline best corrected visual acuity (BCVA) was measured prior to treatment with ONL1204.
# male rabbit NaIO3 model = assay: Sodium iodate (NaIO3) challenge study, lesion size (area of RPE depigmentation); format: in vivo; settings: for lesion area versus negative control: NaIO3 challenge Day 4; for mean lesion size smaller compared to negative controls: NaIO3 challenge Day 59
# Procedure: Animals were anesthetized with isoflurane vapors to effect. […] No reflux was noted on the dosing record.
# Animals were anesthetized with isoflurane vapors to effect.
# The resulting area was then measured.
# IL1RA = assay: Retinal detachment study, cytokine change from administration to surgery: IL1RA; format: in vivo, human; settings: for Percent Change (%) from time of administering ONL1204 to surgery IL1RA: individual patients
# Procedure: as §1, §2
# [5] = test system: patients with retinal detachment; assay: Retinal detachment study, best corrected visual acuity; format: in vivo, human; set-up: key to BCVA Snellen study eye baseline / BCVA Snellen study eye week 9: HM = hand motion; CF = counting fingers; settings: for BCVA logMAR study eye week 6 / BCVA Snellen study eye week 6: week 6, individual patients; for BCVA logMAR study eye week 9 / BCVA Snellen study eye week 9: week 9, individual patients; for BCVA logMAR study eye week 24 / BCVA Snellen study eye week 24: week 24, individual patients
# Procedure: as §1, §2
# Therefore, a volume of 0.05 or 0.1 mL was injected into the study eye. Patient participation was approximately 24 weeks (6 months): a single injection treatment and 24 weeks of follow-up.
# [6] = test system: patients with retinal detachment; assay: Retinal detachment study, adverse events; format: in vivo, human
# Procedure: The primary objective was to determine the Maximum Tolerated Dose (MTD) of a peptide an amino acid sequence […] and the structure of Formula III (ONL1204) and select doses for further clinical studies. During the study, ocular fluid samples were also collected at the time of study drug injection and at the time of vitrectomy. These samples were used for pharmacokinetic and pharmacodynamic analyses.
# as §2
# Planned determinations of dose limiting toxicity included consideration of the following events: • 1.
substance,measurement,setting,value
HHIYLGAVNYIY-NH2 [ONL1204],detection in the vitreous humor,[1],detected in the vitreous humor across all time points analyzed
same,Percent Change (%) from time of administering ONL1204 to surgery IL18,IL18; 25 ug (dose per Table 1),−60.5% and −22.5% and −50.8%
same,Percent Change (%) from time of administering ONL1204 to surgery IL18,IL18; 50 ug (dose per Table 1),0% (2×) and −100%
same,Percent Change (%) from time of administering ONL1204 to surgery IL18,IL18; 100 ug (dose per Table 1),−33.7% and 0% and 66.0%
same,Percent Change (%) from time of administering ONL1204 to surgery IL18,IL18; 200 ug (dose per Table 1),0%
same,mean change in IL18 from administration to surgery,IL18; all patients of Table 7,mean decrease
same,visual field outcomes as measured by Humphrey Visual Field (HVF) analysis,"[2]; 50 ug and 100 ug, two IVT injections (day 0, day 90), compared to sham",improvement in visual field outcomes; also recorded: improvement in visual field was generally observed
same,visual field benefit in patients having lower baseline sensitivities,[2]; baseline sensitivity equal to or less than −5,benefits of ONL1204 treatment were also observed
same,detection in retinal tissue and vitreous humor,[3],detected in retinal tissue as well as the vitreous humor after 168 days
same,detection in the vitreous humor,[3],detected in the vitreous humor across all time points analyzed
same,Percent Change (%) from time of administering ONL1204 to surgery ICAM1,ICAM1; 25 ug (dose per Table 1),−82.4% and −42.7% and −86.2%
same,Percent Change (%) from time of administering ONL1204 to surgery ICAM1,ICAM1; 50 ug (dose per Table 1),64.0% and −100% and 0%
same,Percent Change (%) from time of administering ONL1204 to surgery ICAM1,ICAM1; 100 ug (dose per Table 1),−43.9% and 24.9% and 22.7%
same,Percent Change (%) from time of administering ONL1204 to surgery ICAM1,ICAM1; 200 ug (dose per Table 1),0%
same,mean change in ICAM from administration to surgery,ICAM1; all patients of Table 7,mean decrease
same,Percent Change (%) from time of administering ONL1204 to surgery MCP1,MCP1; 25 ug (dose per Table 1),−41.4% and −6.02% and −35.9%
same,Percent Change (%) from time of administering ONL1204 to surgery MCP1,MCP1; 50 ug (dose per Table 1),−3.12% and −48.4% and 11.6%
same,Percent Change (%) from time of administering ONL1204 to surgery MCP1,MCP1; 100 ug (dose per Table 1),−9.5% and 78.5% and 500%
same,Percent Change (%) from time of administering ONL1204 to surgery MCP1,MCP1; 200 ug (dose per Table 1),−2.4%
same,mean change in MCP1 from administration to surgery,MCP1; all patients of Table 7,mean decrease
same,"visual outcomes (visual acuity, BCVA) versus baseline",[4],improvement in visual outcomes
same,mean lesion size across challenge time points,male rabbit NaIO3 model; 25 ug and 100 ug per eye IVT Day 0,substantive reduction in mean lesion size
same,lesion area versus negative control,male rabbit NaIO3 model; 25 ug per eye IVT Day 0,significantly lower than negative control
same,mean lesion size smaller compared to negative controls,male rabbit NaIO3 model; 25 ug per eye IVT Day 0,40%
same,lesion area versus negative control,male rabbit NaIO3 model; 100 ug per eye IVT Day 0,significantly lower than negative control
same,lesion size versus negative controls and 25 ug,"male rabbit NaIO3 model; 100 ug per eye IVT Day 0, NaIO3 challenge Day 14",significantly smaller lesion size
same,lesion size versus negative control and 25 ug,"male rabbit NaIO3 model; 100 ug per eye IVT Day 0, NaIO3 challenge Day 28",significantly smaller lesion size
same,mean lesion size smaller compared to negative controls,male rabbit NaIO3 model; 100 ug per eye IVT Day 0,50%
same,Percent Change (%) from time of administering ONL1204 to surgery IL1RA,IL1RA; 25 ug (dose per Table 1),−51.0% and −57.4% and −99.3%
same,Percent Change (%) from time of administering ONL1204 to surgery IL1RA,IL1RA; 50 ug (dose per Table 1),−60.0% and −94.4% and −88.3%
same,Percent Change (%) from time of administering ONL1204 to surgery IL1RA,IL1RA; 100 ug (dose per Table 1),8.5% and −46.1% and −65.2%
same,Percent Change (%) from time of administering ONL1204 to surgery IL1RA,IL1RA; 200 ug (dose per Table 1),−26.3%
same,mean change in IL1RA from administration to surgery,IL1RA; all patients of Table 7,mean decrease
same,BCVA logMAR study eye week 6,[5]; 25 ug (dose per Table 1),0.34 logMAR and 0.18 logMAR and 0.82 logMAR (2×)
same,BCVA logMAR study eye week 9,[5]; 25 ug (dose per Table 1),0.14 logMAR and 0.12 logMAR and 0.64 logMAR and 0.78 logMAR
same,BCVA logMAR study eye week 24,[5]; 25 ug (dose per Table 1),0.5 logMAR and 0.2 logMAR and 0.68 logMAR and 0.7 logMAR
same,BCVA Snellen study eye baseline,"[5]; 25 ug single IVT, baseline, individual patients",20/160 and 20/100 and 20/200 and HM
same,BCVA Snellen study eye week 6,[5]; 25 ug single IVT,20/40 and 20/32 and 20/125 (2×)
same,BCVA Snellen study eye week 9,[5]; 25 ug single IVT,20/25 (2×) and 20/100 and 20/125
same,BCVA Snellen study eye week 24,[5]; 25 ug single IVT,20/60 and 20/32 and 20/100 (2×)
same,BCVA logMAR study eye baseline,"[5]; 50 ug (dose per Table 1), baseline, individual patients",3 logMAR and 2 logMAR (3×)
same,BCVA logMAR study eye week 6,[5]; 50 ug (dose per Table 1),0.46 logMAR and 0.38 logMAR (2×) and 0.52 logMAR
same,BCVA logMAR study eye week 9,[5]; 50 ug (dose per Table 1),0.6 logMAR and 0.56 logMAR and 0.34 logMAR
same,BCVA logMAR study eye week 24,[5]; 50 ug (dose per Table 1),0.76 logMAR and 0.2 logMAR and 0.64 logMAR and 0.34 logMAR
same,BCVA Snellen study eye baseline,"[5]; 50 ug single IVT, baseline, individual patients",HM and CF (3×)
same,BCVA Snellen study eye week 6,[5]; 50 ug single IVT,20/50 (2×) and 20/80
same,BCVA Snellen study eye week 9,[5]; 50 ug single IVT,20/80 (2×) and 20/50
same,BCVA Snellen study eye week 24,[5]; 50 ug single IVT,20/125 and 20/32 and 20/80 and 20/50
same,BCVA logMAR study eye week 6,[5]; 100 ug (dose per Table 1),0.8 logMAR and 0.7 logMAR and 1 logMAR and 1.6 logMAR
same,BCVA logMAR study eye week 24,[5]; 100 ug (dose per Table 1),0.5 logMAR and 0.7 logMAR and 1.3 logMAR and 0.6 logMAR
same,BCVA Snellen study eye baseline,"[5]; 100 ug single IVT, baseline, individual patients",HM (2×) and 20/100 and 20/200
same,BCVA Snellen study eye week 6,[5]; 100 ug single IVT,20/125 and 20/100 and 20/200 and 20/800
same,BCVA Snellen study eye week 9,[5]; 100 ug single IVT,20/200 and 20/80 and HM and 20/400
same,BCVA Snellen study eye week 24,[5]; 100 ug single IVT,20/63 and 20/100 and 20/400 and 20/80
same,BCVA logMAR study eye week 6,[5]; 200 ug (dose per Table 1),0.4 logMAR and 0.7 logMAR
same,BCVA logMAR study eye week 9,[5]; 200 ug (dose per Table 1),0.36 logMAR and 0.6 logMAR
same,BCVA logMAR study eye week 24,[5]; 200 ug (dose per Table 1),0.2 logMAR
same,BCVA Snellen study eye baseline,"[5]; 200 ug single IVT, baseline, individual patients",20/160 and HM
same,BCVA Snellen study eye week 6,[5]; 200 ug single IVT,20/50 and 20/100
same,BCVA Snellen study eye week 9,[5]; 200 ug single IVT,20/40 and 20/80
same,BCVA Snellen study eye week 24,[5]; 200 ug single IVT,20/32
same,"summary statistics for all patients, mean (BCVA logMAR), Week 9","[5]; all doses, n 13, week 9",0.78
same,"summary statistics for all patients, mean (BCVA logMAR), Week 24","[5]; all doses, n 13, week 24",0.56
same,"summary statistics for all patients, mean (BCVA logMAR), Baseline","[5]; all doses, n 14, baseline",1.86
same,"summary statistics for all patients, mean (BCVA logMAR), Week 6","[5]; all doses, n 14, week 6",0.65
same,visual outcomes (visual acuity),[5]; all patients receiving 25 ug and 50 ug,improvement in visual outcomes
same,severity of adverse events,"[6]; 25 ug and 50 ug, study procedure or surgery related",Most were mild
same,patients experiencing adverse events,"[6]; 4 patients 25 ug and 4 patients 50 ug, single IVT",7 out of 8
same,total adverse events,"[6]; 8 patients, 25 ug and 50 ug",20
